Results taken from patent US10947284B2, “Fusion molecules” (Pieris Pharmaceuticals GMBH, priority 2015, dated 2021).
Starred links: 1 amine or outer side, 2 acyl side, 3 side chain; linkers in the order of their positions; H or OH if unused. Non-standard residues stand in square brackets, D forms with d. Residues, ends and D or L forms follow the SMILES beside them. *: point of attachment. X1 = O=C([C@@H]1CCNc2c(N[*:1])cc3cc(O)c(O)cc3[n+]21)[*:2]; dOrn(N5-OH,N5-CHO) = N[C@H](CCCN(O)C=O)C(=O)O; d(aThr) = C[C@@H](O)[C@@H](N)C(=O)O; Suc = O=C(CCC(=O)[*:2])[*:1]; X2 = O=C1[C@@H](N*)CCCN1[O-]; Orn = NCCC[C@H](N)C(=O)O

Assays:
[1] = target: T1, hNGAL (human lipocalin 2, parent wild type SEQ ID NO: 1) mutein SEQ ID NO: 39 (Homo sapiens, UniProt P80188, A60R/C107S/D97A/I61W/K145T/K154E/K93L/L123P/L56F/L90N/N116R/Q48H/Q69I/R101S/R92W/S147I/S88Q/W99S/Y120I/Y126E/Y152F); settings: solution binding ELISA
T1 construct: made in house; host or cells: E. coli
T1 sequence (P80188 other isoform, or with tags, fused parts or gaps with the stated changes): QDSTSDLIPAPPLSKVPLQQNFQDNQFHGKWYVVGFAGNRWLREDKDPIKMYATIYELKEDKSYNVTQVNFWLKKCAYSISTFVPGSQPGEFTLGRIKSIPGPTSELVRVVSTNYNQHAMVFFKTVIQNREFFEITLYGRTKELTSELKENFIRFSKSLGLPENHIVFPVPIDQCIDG
Method: (§1) The concentration of free (non ligand-bound) muteins was determined via a quantitative ELISA setup.
(§2) In detail, a 384-well plate suitable for fluorescence measurements (Greiner FLUOTRAC™ 600, black flat bottom, high-binding) was coated with 20 μl of Neutravidin at a concentration of 5 μg/ml in PBS overnight at 4 C. After washing, the Neutravidin-coated wells were blocked with 100 μl blocking buffer containing 0.1% Tween 20 and 2% BSA (PBS-T/BSA) for 1 h at room temperature.
(§3) The residual supernatants were discarded and 20 μl HRP-labeled anti-hNGAL antibody was added at a predetermined optimal concentration in PBS-T/BSA and incubated for 1 h at RT. […] After washing, 20 μl fluorogenic HRP substrate (QuantaBlu, Thermo) was added to each well, and the reaction was allowed to proceed for 15 to 60 minutes. The fluorescence intensity of every well on the plate was read using a fluorescence microplate reader (Tecan or Molecular Devices). […] Curve fitting was performed using GraphPad Prism 4 software.

[2] = target: T2, hNGAL (human lipocalin 2, parent wild type SEQ ID NO: 1) mutein SEQ ID NO: 45 (Homo sapiens, UniProt P80188, A60L/C107S/D97K/I61A/K154W/K93H/L123Q/L56E/L90R/N116L/Q48H/Q69M/R101V/S147V/S88E/W99D/Y120D/Y126E/Y72M); assay: Solution binding ELISA
T2 construct: made in house; host or cells: E. coli
T2 sequence (P80188 other isoform, or with tags, fused parts or gaps with the stated changes): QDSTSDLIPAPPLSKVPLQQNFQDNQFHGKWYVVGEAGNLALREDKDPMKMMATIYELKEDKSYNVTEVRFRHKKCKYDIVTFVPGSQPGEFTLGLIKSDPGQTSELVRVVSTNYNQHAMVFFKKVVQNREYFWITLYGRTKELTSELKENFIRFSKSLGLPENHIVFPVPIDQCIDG
Method: as §1, §2, §3

[3] = target: T3, hNGAL (human lipocalin 2, parent wild type SEQ ID NO: 1) mutein SEQ ID NO: 50 (Homo sapiens, UniProt P80188, A60L/C107S/D97K/I61A/K154W/K93H/L123Q/L56E/L62R/L90R/N116L/N85D/Q48H/Q69M/R101V/S125P/S147V/S88E/W99D/Y120D/Y126E/Y72M); assay: Solution binding ELISA; settings: Example 5
T3 construct: made in house; host or cells: E. coli
T3 sequence (P80188 other isoform, or with tags, fused parts or gaps with the stated changes): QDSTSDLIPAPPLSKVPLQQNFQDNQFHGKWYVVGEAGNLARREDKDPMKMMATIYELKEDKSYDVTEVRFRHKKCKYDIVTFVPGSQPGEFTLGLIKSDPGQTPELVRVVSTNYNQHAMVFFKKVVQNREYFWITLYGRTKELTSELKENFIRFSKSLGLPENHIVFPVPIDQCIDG
Method: as §1, §2, §3

[4] = target: T4, Fusion molecule SEQ ID NO: 134 (hNGAL muteins SEQ ID NOs: 36, 16, 53 and 62) (Homo sapiens, UniProt P80188, A60T/C107S/D97H, form not given/K145I/K154W/K93R/L123T/L56V/L90R/N85D/Q69G/R101D/R92I/S147R/S88D/T74A/W99Y/Y126Q/Y152I/Y72N); assay: Solution binding ELISA; settings: binding to target in solution, tracer 0.1 nM, Table 11
T4 construct: made in house
T4 sequence (P80188 with tags, fused parts or gaps with the stated changes, form open): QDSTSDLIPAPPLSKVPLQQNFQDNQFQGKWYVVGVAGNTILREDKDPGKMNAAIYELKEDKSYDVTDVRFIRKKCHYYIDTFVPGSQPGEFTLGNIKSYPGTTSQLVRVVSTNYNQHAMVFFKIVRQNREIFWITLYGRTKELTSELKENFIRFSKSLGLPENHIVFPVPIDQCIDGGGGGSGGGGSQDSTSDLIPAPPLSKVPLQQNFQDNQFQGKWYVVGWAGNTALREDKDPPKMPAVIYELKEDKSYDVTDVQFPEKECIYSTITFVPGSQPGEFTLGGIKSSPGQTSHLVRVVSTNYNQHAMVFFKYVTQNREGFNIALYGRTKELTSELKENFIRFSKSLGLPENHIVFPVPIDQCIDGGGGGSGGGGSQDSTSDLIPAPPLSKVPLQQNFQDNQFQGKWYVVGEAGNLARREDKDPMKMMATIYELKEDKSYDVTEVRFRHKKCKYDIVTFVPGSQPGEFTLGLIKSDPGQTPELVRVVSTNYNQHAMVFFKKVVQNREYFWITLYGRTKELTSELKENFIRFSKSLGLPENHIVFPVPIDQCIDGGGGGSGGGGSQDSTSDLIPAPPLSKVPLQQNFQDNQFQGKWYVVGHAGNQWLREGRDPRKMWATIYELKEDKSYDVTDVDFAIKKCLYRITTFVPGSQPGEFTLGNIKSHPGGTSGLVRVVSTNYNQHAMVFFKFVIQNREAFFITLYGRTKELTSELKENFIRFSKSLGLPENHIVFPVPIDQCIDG

[5] = target: T5, hNGAL (human lipocalin 2, parent wild type SEQ ID NO: 1) mutein SEQ ID NO: 42 (Homo sapiens, UniProt P80188, A60L/C107S/D97Q/I61A/K154W/K93H/L123Q/L56E/L90R/N116L/Q48H/Q69K/R101A/S147V/S88E/W99D/Y120D/Y126E/Y152F/Y72M); assay: Solution binding ELISA
T5 construct: made in house; host or cells: E. coli
T5 sequence (P80188 other isoform, or with tags, fused parts or gaps with the stated changes): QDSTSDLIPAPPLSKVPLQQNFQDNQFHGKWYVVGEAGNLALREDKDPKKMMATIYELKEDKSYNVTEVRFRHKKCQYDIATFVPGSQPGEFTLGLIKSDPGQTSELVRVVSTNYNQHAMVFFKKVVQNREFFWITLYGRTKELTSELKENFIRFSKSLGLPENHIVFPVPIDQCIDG
Method: as §1, §2, §3

[6] = target: T6, hNGAL (human lipocalin 2, parent wild type SEQ ID NO: 1) mutein SEQ ID NO: 46 (deletion of G-N-I-K, positions 95-98) (Homo sapiens, UniProt P80188, A60L/C107S/D97Q/DEL115-118/I61A/K154W/K93Y/L123Q/L56E/L90R/Q48H/Q69K/R101V/S147V/S88E/W99D/Y120E/Y126E/Y152F/Y72M); assay: Solution binding ELISA
T6 construct: made in house; host or cells: E. coli
T6 sequence (P80188 other isoform, or with tags, fused parts or gaps with the stated changes): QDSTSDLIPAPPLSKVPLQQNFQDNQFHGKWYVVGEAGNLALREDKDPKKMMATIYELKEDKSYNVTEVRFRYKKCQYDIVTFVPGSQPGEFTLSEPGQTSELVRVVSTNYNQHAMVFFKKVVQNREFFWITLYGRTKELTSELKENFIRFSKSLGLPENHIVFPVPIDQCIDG
Method: as §1, §2, §3

[7] = target: T7, hNGAL (human lipocalin 2, parent wild type SEQ ID NO: 1) mutein SEQ ID NO: 48 (Homo sapiens, UniProt P80188, A60L/C107S/D67N/D97K/I61A/K154W/K93H/L123Q/L56E/L90R/N116L/Q48H/Q69M/R101V/S125P/S147V/S88E/T165P/W99D/Y120D/Y126E/Y72M); assay: Solution binding ELISA
T7 construct: made in house; host or cells: E. coli
T7 sequence (P80188 other isoform, or with tags, fused parts or gaps with the stated changes): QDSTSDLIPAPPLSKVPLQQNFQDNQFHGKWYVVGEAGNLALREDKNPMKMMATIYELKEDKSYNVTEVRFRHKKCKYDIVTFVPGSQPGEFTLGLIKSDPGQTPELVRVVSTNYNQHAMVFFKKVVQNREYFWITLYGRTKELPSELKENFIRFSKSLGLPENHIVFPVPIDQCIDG
Method: as §1, §2, §3

[8] = target: T8, hNGAL (human lipocalin 2, parent wild type SEQ ID NO: 1) mutein SEQ ID NO: 47 (Homo sapiens, UniProt P80188, A60L/C107S/D97K/I61A/K154W/K93H/L123Q/L56E/L62R/L90R/N116L/Q48H/Q69M/R101V/S125P/S147V/S88E/W99D/Y120D/Y126E/Y72M); assay: Solution binding ELISA
T8 construct: made in house; host or cells: E. coli
T8 sequence (P80188 other isoform, or with tags, fused parts or gaps with the stated changes): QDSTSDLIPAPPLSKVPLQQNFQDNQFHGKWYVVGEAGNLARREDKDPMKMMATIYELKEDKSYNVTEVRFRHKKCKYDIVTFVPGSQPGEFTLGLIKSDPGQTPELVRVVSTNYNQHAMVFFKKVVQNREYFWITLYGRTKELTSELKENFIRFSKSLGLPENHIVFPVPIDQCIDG
Method: as §1, §2, §3

[9] = target: T9, Fusion molecule SEQ ID NO: 134 (hNGAL muteins SEQ ID NOs: 36, 16, 53 and 62) (Homo sapiens, UniProt P80188, A60T/C107S/D97H, form not given/K145I/K154W/K93R/L123T/L56V/L90R/N85D/Q69G/R101D/R92I/S147R/S88D/T74A/W99Y/Y126Q/Y152I/Y72N); assay: Surface plasmon resonance (Biacore T200); type: binding; settings: for binding: SPR
T9 construct: made in house; host or cells: HEK293
T9 sequence (P80188 with tags, fused parts or gaps with the stated changes, form open): as the sequence (P80188 with tags, fused parts or gaps with the stated changes, form open) above

[10] = target: T10, hNGAL (human lipocalin 2, parent wild type SEQ ID NO: 1) mutein SEQ ID NO: 44 (Homo sapiens, UniProt P80188, A60L/C107S/D97K/I61T/K154W/K93R/L123Q/L56E/L90R/N116V/Q48H/Q69M/R101V/S147V/S88E/W99D/Y120D/Y126E/Y72M); assay: Solution binding ELISA
T10 construct: made in house; host or cells: E. coli
T10 sequence (P80188 other isoform, or with tags, fused parts or gaps with the stated changes): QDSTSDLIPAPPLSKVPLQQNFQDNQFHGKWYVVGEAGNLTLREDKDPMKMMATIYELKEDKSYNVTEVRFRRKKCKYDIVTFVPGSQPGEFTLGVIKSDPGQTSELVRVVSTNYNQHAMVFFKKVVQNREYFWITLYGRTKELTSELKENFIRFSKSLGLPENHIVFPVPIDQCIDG
Method: as §1, §2, §3

[11] = target: T11, hNGAL (human lipocalin 2, parent wild type SEQ ID NO: 1) mutein SEQ ID NO: 53 (Homo sapiens, UniProt P80188, A60L/C107S/D97K/I61A/K154W/K93H/L123Q/L56E/L62R/L90R/N116L/N85D/Q69M/R101V/S125P/S147V/S88E/W99D/Y120D/Y126E/Y72M); assay: Solution binding ELISA; settings: Example 5
T11 construct: made in house; host or cells: E. coli
T11 sequence (P80188 21-198 with the stated changes): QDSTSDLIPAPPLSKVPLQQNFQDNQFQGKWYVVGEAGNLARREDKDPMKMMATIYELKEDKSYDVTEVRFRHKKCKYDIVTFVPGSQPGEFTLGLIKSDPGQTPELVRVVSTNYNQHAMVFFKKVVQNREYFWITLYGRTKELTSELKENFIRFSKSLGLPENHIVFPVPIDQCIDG
Method: as §1, §2, §3
The concentration of free (non ligand-bound) mutein or fusion molecule construct was determined via a quantitative ELISA setup.
In detail, a 384-well plate suitable for fluorescence measurements (Greiner FLUOTRAC™ 600, black flat bottom, high-binding) was coated with 20 μl of Neutravidin at a concentration of 5 μg/ml in PBS overnight at 4° C. After washing, the Neutravidin-coated wells were blocked with 100 μl blocking buffer containing 0.1% Tween 20 and 2% BSA (PBS-T/BSA) for 1 h at room temperature.
The residual supernatants were discarded and 20 μl HRP-labeled anti-hNGAL antibody was added at a predetermined optimal concentration in PBS-T/BSA and incubated for 1 h at RT. […] After washing, 20 μl fluorogenic HRP substrate (QuantaBlu, Thermo) was added to each well, and the reaction was allowed to proceed for 15 to 60 minutes. The fluorescence intensity of every well on the plate was read using a fluorescence microplate reader (Tecan or Molecular Devices). […] IC50 values were fitted by nonlinear regression with a single-sites binding model. Curve fitting was performed using GraphPad Prism 4 software.

[12] = target: T12, hNGAL (human lipocalin 2, parent wild type SEQ ID NO: 1) mutein SEQ ID NO: 43 (Homo sapiens, UniProt P80188, A60L/C107S/D97K/I61A/K154W/K93Q/L123Q/L56E/L90R/N116L/Q48H/Q69M/R101V/S147V/S88E/W99D/Y120D/Y126E/Y72M); assay: Solution binding ELISA
T12 construct: made in house; host or cells: E. coli
T12 sequence (P80188 other isoform, or with tags, fused parts or gaps with the stated changes): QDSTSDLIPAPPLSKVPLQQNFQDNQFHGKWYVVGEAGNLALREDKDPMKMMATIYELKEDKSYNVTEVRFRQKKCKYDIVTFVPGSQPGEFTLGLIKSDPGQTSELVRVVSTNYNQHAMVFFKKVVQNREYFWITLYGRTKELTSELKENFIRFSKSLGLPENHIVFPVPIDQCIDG
Method: as §1, §2, §3

[13] = target: lipocalin negative control SEQ ID NO: 64 (Homo sapiens, UniProt P80188, C107S/Q48H); assay: Surface plasmon resonance (Biacore T200); type: binding
Chain of lipocalin negative control SEQ ID NO: 64 (P80188 21-198 Q48H/C107S): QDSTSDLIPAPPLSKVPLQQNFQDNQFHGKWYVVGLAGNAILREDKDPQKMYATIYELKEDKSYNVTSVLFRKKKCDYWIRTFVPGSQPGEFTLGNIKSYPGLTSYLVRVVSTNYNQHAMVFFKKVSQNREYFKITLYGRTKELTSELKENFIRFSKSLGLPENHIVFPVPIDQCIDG
Method: (§4) In a Surface Plasmon Resonance (SPR) based assay a Biacore T200 instrument (GE Healthcare) was used to measure the binding affinity of muteins to pyoverdine I succinyl, -succinamide, -α-ketoglutaryl with complexed iron ion or to pyoverdine II succinyl, -succinamide, -α-ketoglutaryl with complexed iron ion or to pyoverdine III succinyl, -succinamide, -α-ketoglutaryl with complexed iron ion. Muteins selected for binding to pyoverdines and negative control (SEQ ID NO: 64) were biotinylated for 2 h at room temperature applying an appropriate excess of EZ-Link NHS-PEG4-Biotin (Thermo, Cat #21329) followed by separation of non-reacted Biotin using a Zebra Spin Desalting Plate (Thermo, Cat #21329) according to the manufactures instructions.
(§5) In the SPR affinity assay, biotinylated muteins and negative control were captured on a sensor chip CAP using the Biotin CAPture Kit (GE Healthcare): Sensor Chip CAP is pre-immobilized with an ssDNA oligo. Undiluted Biotin CAPture Reagent (streptavidin conjugated with the complementary ss-DNA oligo) was applied at a flow rate of 2 μl/min for 300 s. Subsequently, 1 μg/ml to 100 μg/mL of biotinylated muteins or negative control were applied for 300 s at a flow rate of 5 μl/min. The reference channel was loaded with Biotin CAPture Reagent only.
(§6) Applying a flow rate of 30 μl/min, a single cycle or multi cycle kinetics approach was used with a sample contact time of 120-180 s and a dissociation time of 900-2400 s. […] After ligand immobilization, for analysis using single cycle kinetics all 4-5 concentrations of Pvd were applied consecutively in ascending order before the dissociation was monitored. For analysis using multi cycle kinetics 4 dilutions of Pvd were applied, each followed a dissociation phase. All measurements were performed at 25° C. […] Data were evaluated with Biacore T200 Evaluation software (V 1.0). Double referencing was used. A 1:1 Binding model was used to fit the raw data.
(§7) Subsequently, 5 μg/mL of mutein or the negative control solution in 10 mM acetate pH 4.0 was applied at a flow rate of 10 μl/min until a high immobilization level of approximately 2000 RU was achieved. Residual activated groups were quenched with ethanolamine. The reference channels were treated with EDC/NHS following ethanolamine (blank immobilization).
In the SPR affinity assay, biotinylated muteins and negative control were captured on a sensor chip CAP using the Biotin CAPture Kit (GE Healthcare), wherein the Sensor Chip CAP is pre-immobilized with an ssDNA oligo. Undiluted Biotin CAPture Reagent (streptavidin conjugated with the complementary ss-DNA oligo) was applied at a flow rate of 2 μl/min for 300 s. Subsequently, 20 μg/ml to 100 μg/mL of biotinylated muteins or fusion molecule negative control were applied for 300 s at a flow rate of 5 μl/min. The reference channel was loaded with Biotin CAPture Reagent only. To determine the binding affinity, four dilutions of the respective Pvd were prepared in HBS-EP+ buffer (GE Healthcare) and applied to the chip surface. Applying a flow rate of 30 μl/min, a single cycle kinetics approach was used with a sample contact time of 180 s and a dissociation time of 1800-2400 s. […] After ligand immobilization, the four concentrations of Pvd were applied consecutively in ascending order before the dissociation was monitored. All measurements were performed at 25° C. […] Data were evaluated with Biacore T200 Evaluation software (V 1.0). Double referencing was preformed. A 1:1 binding model was used to fit the raw data.

[14] = target: T11, hNGAL (human lipocalin 2, parent wild type SEQ ID NO: 1) mutein SEQ ID NO: 53; assay: Surface plasmon resonance (Biacore T200); type: binding; settings: SPR, 25° C., Table 2C
Method: as §4, §5, §6
In a surface plasmon resonance (SPR) based assay, a Biacore T200 instrument (GE Healthcare) was used to measure the binding affinity of individual muteins or fusion molecules to pyoverdine siderophores (to pyoverdine I succinyl, -succinamide, -α-ketoglutaryl with complexed iron ion or to pyoverdine II succinyl, -succinamide, -α-ketoglutaryl with complexed iron ion or to pyoverdine III succinyl, -succinamide, -α-ketoglutaryl with complexed iron ion). To this end, muteins selected for binding to pyoverdines (SEQ ID NOs: 16, 36, 53), a fusion molecule (SEQ ID NO: 134) and a negative control (SEQ ID NO: 64) were biotinylated for 2 h at room temperature applying an appropriate excess of EZ-Link NHS-PEG4-Biotin (Thermo, Cat #21329) followed by separation of non-reacted biotin using a Zebra Spin Desalting Plate (Thermo, Cat #21329) according to the manufacturer's instructions.
In the SPR affinity assay, biotinylated muteins and negative control were captured on a sensor chip CAP using the Biotin CAPture Kit (GE Healthcare), wherein the Sensor Chip CAP is pre-immobilized with an ssDNA oligo. Undiluted Biotin CAPture Reagent (streptavidin conjugated with the complementary ss-DNA oligo) was applied at a flow rate of 2 μl/min for 300 s. Subsequently, 20 μg/ml to 100 μg/mL of biotinylated muteins or fusion molecule negative control were applied for 300 s at a flow rate of 5 μl/min. The reference channel was loaded with Biotin CAPture Reagent only. To determine the binding affinity, four dilutions of the respective Pvd were prepared in HBS-EP+ buffer (GE Healthcare) and applied to the chip surface. Applying a flow rate of 30 μl/min, a single cycle kinetics approach was used with a sample contact time of 180 s and a dissociation time of 1800-2400 s. […] After ligand immobilization, the four concentrations of Pvd were applied consecutively in ascending order before the dissociation was monitored. All measurements were performed at 25° C. […] Data were evaluated with Biacore T200 Evaluation software (V 1.0). Double referencing was preformed.

[15] = target: T13, hNGAL (human lipocalin 2, parent wild type SEQ ID NO: 1) mutein SEQ ID NO: 62 (Homo sapiens, UniProt P80188, A60Q/C107S/D65G/D97L/I61W/K145F/K154F/K66R/K93I/L123G/L56H/L90D/N85D/Q69R/R101T/R92A/S147I/S88D/W99R/Y120H/Y126G/Y152A/Y72W); assay: Surface plasmon resonance (Biacore T200), CM5 chip; type: binding; settings: SPR, high concentrations (≥1 μM)
T13 construct: made in house
T13 sequence (P80188 21-198 with the stated changes): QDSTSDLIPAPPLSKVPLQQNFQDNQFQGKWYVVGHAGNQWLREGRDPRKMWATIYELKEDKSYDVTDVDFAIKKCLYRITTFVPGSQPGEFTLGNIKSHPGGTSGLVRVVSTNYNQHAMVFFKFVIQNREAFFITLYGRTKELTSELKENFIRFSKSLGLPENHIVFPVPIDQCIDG
Method: as §7
The binding assay was carried out with a contact time of 180 s, dissociation times of 1200-1800 s and applying a flow rate of 30 μl/min. Measurements were performed at 25° C. Regeneration of the immobilized mutein surface was achieved by three consecutive injections of 10 mM Gly-HCl pH 1.5 (120 s) followed by an extra wash with running buffer and a stabilization period. Data were evaluated with Biacore T200 Evaluation software (V 1.0). Double referencing was used. The 1:1 Binding model was used to fit the raw data.
Subsequently, 5 μg/mL of mutein or the negative control solution in 10 mM acetate pH 4.0 was applied at a flow rate of 10 μl/min until a high immobilization level of approximately 2000 RU was achieved. Residual activated groups were quenched with ethanolamine. The reference channels were treated with EDC/NHS following ethanolamine (blank immobilization). […] The binding assay was carried out with a contact time of 180 s, dissociation times of 1500-1800 s and applying a flow rate of 30 μl/min. Measurements were performed at 25° C. Regeneration of the immobilized mutein surface was achieved by three consecutive injections of 10 mM Gly-HCl pH 1.5 (120 s) followed by an extra wash with running buffer and a stabilization period. Data were evaluated with Biacore T200 Evaluation software (V 1.0). Double referencing was used. The 1:1 Binding model was used to fit the raw data.

[16] = target: hNGAL (human lipocalin 2), wild type, SEQ ID NO: 1 (Homo sapiens, UniProt P80188); settings: cited from earlier work
Chain of hNGAL (human lipocalin 2), wild type, SEQ ID NO: 1 (P80188 21-198): as the sequence (P80188 21-198 Q48H/C107S) above, with H28Q, S87C counted along it

Row | Structure (SMILES) | IC50 [1] [nM] | IC50 [2] [nM] | IC50 [3] [nM] | IC50 [4] [nM] | IC50 [5] [nM] | IC50 [6] [nM] | IC50 [7] [nM] | IC50 [8] [nM] | Kd ([9]; Biacore, 25° C., Table 13) [nM] | IC50 [10] [nM] | IC50 [11] [nM] | IC50 [12] [nM] | other results
1 | NC(=O)CC[C@H](NC(=O)[C@H](CCCN(O)C=O)NC(=O)[C@@H]1CCN=C([C@@H](CO)NC(=O)[C@@H]2CCNc3c(NC(=O)C(=O)CCC(=O)O)cc4cc(O)c(O)cc4[n+]32)N1)C(=O)N[C@H](CCC(N)=O)C(=O)N[C@H](CCCN(O)C=O)C(=O)NCC(=O)O [Pvd III aKG (−Fe), Pvd type III α-ketoglutaryl] | 23 | 1.7 | 0.82 | 0.7 | 69 | 1.2 | 0.64 | 0.58 | 18.7 | 1.1 | 0.33 | 1.9 | –
2 | NC(=O)CC[C@H](NC(=O)[C@H](CCCN([O-])C=O)NC(=O)[C@@H]1CCN=C([C@@H](CO)NC(=O)[C@@H]2CCNc3c(NC(=O)CCC(=O)O)cc4cc([O-])c([O-])cc4[n+]32)N1)C(=O)N[C@H](CCC(N)=O)C(=O)N[C@H](CCCN([O-])C=O)C(=O)NCC(=O)O.[Fe+3] [Pvd III s (+Fe), Pvd type III succinyl] | – | – | – | – | – | – | – | – | – | – | – | – | binding ([13]; SPR, analyte at 1200 nM): absence of binding
3 | NC(=O)CCC(=O)Nc1cc2cc([O-])c([O-])cc2[n+]2c1NCC[C@H]2C(=O)N[C@H](CO)C1=NCC[C@@H](C(=O)N[C@@H](CCCN([O-])C=O)C(=O)N[C@@H](CCC(N)=O)C(=O)N[C@H](CCC(N)=O)C(=O)N[C@H](CCCN([O-])C=O)C(=O)NCC(=O)O)N1.[Fe+3] [Pvd III sa (+Fe), Pvd type III succinamide] | 147 | 0.43 | 0.35 | 0.31 | 15 | 0.3 | 0.22 | 0.3 | 0.27 | 0.26 | 0.25 | 0.25 | Kd [14]: 0.58 nM; koff [14]: 3.9e-05 s⁻¹; kon [14]: 67300 M⁻¹ s⁻¹
4 | NC(=O)CC[C@H](NC(=O)[C@H](CCCN([O-])C=O)NC(=O)[C@@H]1CCN=C([C@@H](CO)NC(=O)[C@@H]2CCNc3c(NC(=O)C(=O)CCC(=O)O)cc4cc([O-])c([O-])cc4[n+]32)N1)C(=O)N[C@H](CCC(N)=O)C(=O)N[C@H](CCCN([O-])C=O)C(=O)NCC(=O)O.[Fe+3] [Pvd III aKG (+Fe), Pvd type III α-ketoglutaryl] | 23 | 1.5 | 0.95 | 0.58 | 78 | 1.02 | 0.95 | 0.82 | 1.04 | 0.93 | 0.54 | 1.4 | Kd [14]: 3.6 nM; koff [14]: 0.00014 s⁻¹; kon [14]: 38800 M⁻¹ s⁻¹
5 | NC(=O)CCC(=O)Nc1cc2cc(O)c(O)cc2[n+]2c1NCC[C@H]2C(=O)N[C@H](CO)C1=NCC[C@@H](C(=O)N[C@@H](CCCN(O)C=O)C(=O)N[C@@H](CCC(N)=O)C(=O)N[C@H](CCC(N)=O)C(=O)N[C@H](CCCN(O)C=O)C(=O)NCC(=O)O)N1 [Pvd III sa (−Fe), Pvd type III succinamide] | 94 | 0.46 | 0.37 | 0.27 | 7.2 | 0.3 | 0.24 | 0.28 | 1.65 | 0.21 | 0.63 | 0.46 | –
6 | CC(=O)N(O)CCCCCNC(=O)CCC(=O)N(O)CCCCCNC(=O)CCC(=O)N(O)CCCCCN [Desferoxamin, desferoxamine] | – | – | – | – | – | – | – | – | – | – | – | – | KD ([9]; Biacore, 25° C., Table 13): no bdg; binding ([9]; high concentrations (≥1 μM)): absence of binding; binding [15]: absence of binding
7 | O=C(N[C@H]1COC(=O)[C@@H](NC(=O)c2cccc(O)c2O)COC(=O)[C@@H](NC(=O)c2cccc(O)c2O)COC1=O)c1cccc(O)c1O.[Fe+3] [enterobactin] | – | – | – | – | – | – | – | – | – | – | – | – | binding [16]: high affinity
8 | C[C@@H](O)[C@@H](NC(=O)CNC(=O)[C@H](CCCN)NC(=O)[C@@H](CCCN([O-])C=O)NC(=O)[C@@H](CO)NC(=O)[C@@H]1CCNc2c(NC(=O)CCC(=O)O)cc3cc([O-])c([O-])cc3[n+]21)C(=O)N[C@@H](CO)C(=O)N[C@H]1CCCN([O-])C1=O.[Fe+3] [Pvd II s (+Fe), Pvd type II succinyl] (Suc-[X1][dS][dOrn(N5-OH,N5-CHO)][Orn]G[d(aThr)]S-X2) | – | – | – | – | – | – | – | – | – | – | – | – | binding ([13]; SPR, analyte at 1200 nM): absence of binding
9 | CN1[C@@H]([C@H]2CSC(c3ccccc3O)=N2)SC[C@H]1C(=O)O [pyochelin] | – | – | – | – | – | – | – | – | – | – | – | – | binding ([13]; Biacore, Example 18): did not show binding; binding ([9]; His-tagged fusion captured via Ni-NTA): clearly detectable; binding [16]: does not bind
